# Results published in US7910723B2, “IG20 splice variants therapeutics for cancer” (The Board of Trustees of the University of Illinois, priority 2006, dated 2011).
# Tests used:
# MADD = assay: Phosphorylation of exogenous wtMADD in HEK293 cells (anti-phospho antibodies); type: cell-based; details: HEK293 transfected with wtMADD; LY 10 μM 1 h, IGF-1 150 ng/ml 20 minutes
# Protocol: (A) In vitro phosphorylation of rMADD by Akt. GST-wtMADD or -MADD mutants were expressed in bacteria, purified, and then incubated with rAkt and γ[^32P] ATP. After 1 h incubation at 30° C., the products were resolved on SDS-PAGE and ^32P-labeled proteins were visualized by autoradiography. (B) MADD is labeled by [^32P]orthophosphate in vivo. HEK293 cells were transfected with wtMADD or MADD mutant constructs. Twenty-four hours after transfection cells were incubated with 0.3 mCi/ml [32P]orthophosphate for 6 h. MADD was immunoprecipitated with an anti-YFP antibody. The precipitated MADD was separated by SDS-PAGE, transferred to a nitrocellulose membrane, and subjected to autoradiography. Loaded MADD was visualized by staining the same membrane with an anti-YFP antibody. (C) HEK293 cells were transfected with cDNAs for wtMADD or MADD mutants and. 36 h later the cells were harvested for immunoblotting using the anti-phospho-S-70, -T-173 or -T-1041 antibodies. An anti-YFP antibody was used to detect exogenous MADD. (D) HEK293 cells were transfected with wtMADD and 24 hours later cells were serum starved for 20 h. Subsequently, they were treated with LY (10 μM) for 1 h and/or IGF-1 (150 ng/ml) for 20 minutes. The cell lysates were immunoblotted and probed with anti phospho-specific antibodies or an anti-YFP antibody. […]
# HeLa cells = assay: Spontaneous apoptosis of HeLa cells (Hoechst nuclear condensation, TMRM mitochondrial depolarization); type: cell-based; details: 72 hours post-transduction
# Protocol: FIG. 1 illustrates effect of down-modulation of IG20-SVs in HeLa cells. (A) Summary of results showing percentage of cells with increased nuclear condensation as measured by Hoechst staining from three independent experiments. The P value was <0.005 for all test groups. Hoechst Staining-72 hours post-transduction was performed and HeLa cells were collected and stained with 1 μg/mL of Hoechst and subjected to FACS analysis. Percentages of highly positive cells (apoptotic cells) are indicated on the histograms. (B) Summary of results showing percentage of cells with increased mitochondrial depolarization from three independent experiments. The P value was <0.005 for all test groups. The data were collected from only GFP positive cells. […] Loss of staining as a marker of mitochondrial depolarization was detected by FACS.
# Spontaneous cell death was determined by nuclear condensation (Hoechst 33342) and loss of mitochondrial membrane potential (TMRM staining) (FIG. 1A-B). […] Whether the underlying cause of increased spontaneous apoptosis was similar to that noted after induction of apoptosis by the extrinsic (caspase-8 activation) or the intrinsic (caspase-9 activation) pathway was analyzed by determining the percentage of cells that harbored active caspases 8 and 9 using flow cytometry.
# Hoechst Staining. […] Cells with condensed chromatin were analyzed using a BD-LSR (Becton Dickinson, N.J.). […]
Compound,"S70, T173 and T1041 phosphorylation levels of MADD (MADD)","Spontaneous apoptosis (nuclear condensation, mitochondrial depolarization) (HeLa cells)"
O=c1cc(N2CCOCC2)oc2c(-c3ccccc3)cccc12 [LY],decreased,–
"13L-shRNA: shRNA targeting exon 13L (IG20, MADD), 5′ CGGCGAATCTATGACAATC-3′ (SEQ ID NO: 4)",–,"consistently higher in 13L-treated, relative to Mid-treated, cells"
